Assay results: PubChem BioAssay AID330 (DTP/NCI, 2004)
Several values for one entry are separate records, joined by “and”; a condition that tells them apart may be missing. Identical values can stand only once. Toxic doses and inconclusive results are not listed.

Tested on: P388 leukemia ip, CD2F1 mice, survival T/C
Assay: NCI In Vivo Anticancer Drug Screen. Data for tumor model P388 Leukemia (intraperitoneal) in CD2F1 (CDF1) mice
Details: endpoint: median survival time, higher = longer survival
Procedure, shortened: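 Mice carrying the transplanted tumor received test compound or vehicle. Survival was recorded in each group, and the value is the treated-group measurement divided by that of the vehicle-treated control group.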

[1] = dose: 100.0 mg/kg/injection, schedule: Q04DX003 (ip), vehicle: saline
[2] = dose: 12.5 mg/kg/injection, schedule: Q01DX009 (ip), vehicle: saline
[3] = dose: 25.0 mg/kg/injection, schedule: Q01DX009 (ip), vehicle: saline
[4] = dose: 50.0 mg/kg/injection, schedule: Q01DX005 (ip), vehicle: Klucel (hydroxypropylcellulose) (HPC)
[5] = dose: 100.0 mg/kg/injection, schedule: Q01DX005 (ip), vehicle: Klucel (hydroxypropylcellulose) (HPC)
[6] = dose: 200.0 mg/kg/injection, schedule: Q01DX005 (ip), vehicle: Klucel (hydroxypropylcellulose) (HPC)

C1CC2CCC1CNC2
T/C (dose: 25.0 mg/kg/injection, schedule: Q04DX003 (ip), vehicle: saline): 104 % of control | T/C (dose: 50.0 mg/kg/injection, schedule: Q04DX003 (ip), vehicle: saline): 104 % of control | T/C [1]: 95 % of control

CC(CCC(=O)O)(c1ccc(OC(=O)Nc2ccccc2Cl)cc1)c1ccc(OC(=O)Nc2ccccc2Cl)cc1
T/C (dose: 50.0 mg/kg/injection, schedule: Q01DX005 (ip), vehicle: saline with Tween-80): 118 % of control | T/C (dose: 100.0 mg/kg/injection, schedule: Q01DX005 (ip), vehicle: saline with Tween-80): 102 % of control | T/C (dose: 200.0 mg/kg/injection, schedule: Q01DX005 (ip), vehicle: saline with Tween-80): 109 % of control

O=C1CC(O)C2C(=O)c3c(c(Cl)c4ccccc4c3O)C(=O)C2C1 (stereo not drawn)
T/C (dose: 60.0 mg/kg/injection, schedule: Q01DX005 (ip), vehicle: Klucel (hydroxypropylcellulose) (HPC)): 94 % of control | T/C (dose: 120.0 mg/kg/injection, schedule: Q01DX005 (ip), vehicle: Klucel (hydroxypropylcellulose) (HPC)): 94 % of control | T/C (dose: 240.0 mg/kg/injection, schedule: Q01DX005 (ip), vehicle: Klucel (hydroxypropylcellulose) (HPC)): 93 % of control

O=C(Nc1ccc(C2=NCCN2)cc1)c1ccc(NC(=O)c2ccc(C3=NCCN3)cc2)cc1
T/C (dose: 18.0 mg/kg/injection, schedule: Q01DX010 (ip), vehicle: saline): 154 % of control | T/C (dose: 27.0 mg/kg/injection, schedule: Q01DX010 (ip), vehicle: saline): 172 % of control

O=C(NCc1cccnc1)Nc1cccc2c(NC(=O)NCc3cccnc3)cccc12
T/C (dose: 60.0 mg/kg/injection, schedule: Q01DX005 (ip), vehicle: saline with Tween-80): 91 % of control | T/C (dose: 120.0 mg/kg/injection, schedule: Q01DX005 (ip), vehicle: saline with Tween-80): 86 % of control | T/C (dose: 240.0 mg/kg/injection, schedule: Q01DX005 (ip), vehicle: saline with Tween-80): 86 % of control

O=S1(=O)CC2(N3CCOCC3)CCCCCC21 (stereo not drawn)
T/C (dose: 100.0 mg/kg/injection, schedule: Q04DX003 (ip), vehicle: saline with Tween-80): 103 % of control | T/C (dose: 200.0 mg/kg/injection, schedule: Q04DX003 (ip), vehicle: saline with Tween-80): 100 % of control | T/C (dose: 400.0 mg/kg/injection, schedule: Q04DX003 (ip), vehicle: saline with Tween-80): 100 % of control

CN1CCc2nc[nH]c2C1
T/C (dose: 100.0 mg/kg/injection, schedule: Q04DX002 (ip), vehicle: saline): 97 % of control | T/C (dose: 200.0 mg/kg/injection, schedule: Q04DX002 (ip), vehicle: saline): 101 % of control | T/C (dose: 400.0 mg/kg/injection, schedule: Q04DX002 (ip), vehicle: saline): 99 % of control

CSCCC(N)C(=O)OCN1C(=O)C2C3C=CC(C2C1=O)C1C2C(=O)N(COC(=O)C(N)CCSC)C(=O)C2C31 (stereo not drawn)
T/C [2]: 117 % of control | T/C [3]: 122 % of control and 93 % of control | T/C (dose: 50.0 mg/kg/injection, schedule: Q01DX009 (ip), vehicle: saline): 109 % of control | T/C (dose: 100.0 mg/kg/injection, schedule: Q01DX009 (ip), vehicle: saline): 171 % of control and 200 % of control

CNC(=O)N(C)C1=NC(O)(c2ccccc2)C(c2ccccc2)=N1 (stereo not drawn)
T/C (dose: 100.0 mg/kg/injection, schedule: Q04DX002 (ip), vehicle: saline with Tween-80): 87 % of control

[Cl][Al]([Cl])[Cl]
T/C (dose: 6.25 mg/kg/injection, schedule: Q01DX009 (ip), vehicle: saline): 100 % of control | T/C (dose: 12.5 mg/kg/injection, schedule: Q01DX009 (ip), vehicle: saline sonified): 100 % of control | T/C [2]: 100 % of control | T/C (dose: 25.0 mg/kg/injection, schedule: Q01DX009 (ip), vehicle: saline sonified): 90 % of control | T/C [3]: 95 % of control | T/C (dose: 50.0 mg/kg/injection, schedule: Q01DX009 (ip), vehicle: saline sonified): 95 % of control | T/C [1]: 90 % of control | T/C (dose: 200.0 mg/kg/injection, schedule: Q04DX003 (ip), vehicle: saline): 95 % of control and 100 % of control | T/C (dose: 400.0 mg/kg/injection, schedule: Q04DX003 (ip), vehicle: saline): 86 % of control

CC(=O)Nc1ccc(S(=O)(=O)n2c(=O)oc3ccc(Cl)cc32)cc1
T/C [4]: 99 % of control | T/C [5]: 94 % of control | T/C [6]: 94 % of control

Cc1cc(Cl)nc2c1ccn2C1OCC(O)C(O)C1O (stereo not drawn)
T/C (dose: 16.0 mg/kg/injection, schedule: Q01DX001 (ip), vehicle: saline with Tween-80): 102 % of control and 107 % of control | T/C (dose: 32.0 mg/kg/injection, schedule: Q01DX001 (ip), vehicle: saline with Tween-80): 98 % of control and 107 % of control | T/C (dose: 64.0 mg/kg/injection, schedule: Q01DX001 (ip), vehicle: saline with Tween-80): 107 % of control

N#Cc1ccccc1N=Nc1ccccc1
T/C (dose: 50.0 mg/kg/injection, schedule: Q01DX009 (ip), vehicle: saline + alcohol): 94 % of control | T/C (dose: 100.0 mg/kg/injection, schedule: Q01DX009 (ip), vehicle: saline + alcohol): 95 % of control | T/C (dose: 200.0 mg/kg/injection, schedule: Q01DX009 (ip), vehicle: saline + alcohol): 97 % of control

CC(=O)OC1C2(CC3N4C(=O)C5(CO)SSC4(CC31O)C(=O)N5C)OC(C)C(C)(C)C2=O (stereo not drawn)
T/C (dose: 0.08 mg/kg/injection, schedule: Q01DX009 (ip), vehicle: saline): 101 % of control | T/C (dose: 0.15 mg/kg/injection, schedule: Q01DX009 (ip), vehicle: saline): 108 % of control | T/C (dose: 0.3 mg/kg/injection, schedule: Q01DX009 (ip), vehicle: saline): 111 % of control | T/C (dose: 0.31 mg/kg/injection, schedule: Q01DX009 (ip), vehicle: saline): 107 % of control | T/C (dose: 0.6 mg/kg/injection, schedule: Q01DX009 (ip), vehicle: saline): 111 % of control | T/C (dose: 0.63 mg/kg/injection, schedule: Q01DX009 (ip), vehicle: saline with Tween-80): 97 % of control | T/C (dose: 0.63 mg/kg/injection, schedule: Q01DX009 (ip), vehicle: saline): 107 % of control | T/C (dose: 0.78 mg/kg/injection, schedule: Q01DX009 (oral), vehicle: saline): 104 % of control | T/C (dose: 1.2 mg/kg/injection, schedule: Q01DX009 (ip), vehicle: saline): 99 % of control | T/C (dose: 1.25 mg/kg/injection, schedule: Q01DX009 (ip), vehicle: saline): 103 % of control and 111 % of control | T/C (dose: 1.56 mg/kg/injection, schedule: Q01DX009 (oral), vehicle: saline): 105 % of control | T/C (dose: 3.12 mg/kg/injection, schedule: Q01DX009 (oral), vehicle: saline): 100 % of control and 101 % of control | T/C (dose: 6.25 mg/kg/injection, schedule: Q01DX009 (oral), vehicle: saline): 95 % of control | T/C (dose: 12.5 mg/kg/injection, schedule: Q01DX009 (oral), vehicle: saline): 89 % of control

O=C1C2=C(CCC2)C(=O)N1c1ccc(N2C(=O)C3=C(CCC3)C2=O)cc1
T/C (dose: 1.56 mg/kg/injection, schedule: Q01DX009 (ip), vehicle: distilled water + Tween-80): 101 % of control | T/C (dose: 3.13 mg/kg/injection, schedule: Q01DX009 (ip), vehicle: distilled water + Tween-80): 102 % of control | T/C (dose: 6.25 mg/kg/injection, schedule: Q01DX009 (ip), vehicle: distilled water + Tween-80): 100 % of control | T/C (dose: 12.5 mg/kg/injection, schedule: Q01DX009 (ip), vehicle: distilled water + Tween-80): 99 % of control | T/C (dose: 25.0 mg/kg/injection, schedule: Q01DX009 (ip), vehicle: distilled water + Tween-80): 107 % of control | T/C (dose: 50.0 mg/kg/injection, schedule: Q01DX009 (ip), vehicle: distilled water + Tween-80): 103 % of control | T/C (dose: 100.0 mg/kg/injection, schedule: Q01DX009 (ip), vehicle: distilled water + Tween-80): 119 % of control

Oc1nc(-c2ccccc2)sc1-c1ccccc1
T/C (dose: 50.0 mg/kg/injection, schedule: Q01DX009 (ip), vehicle: saline with Tween-80): 89 % of control | T/C (dose: 100.0 mg/kg/injection, schedule: Q01DX009 (ip), vehicle: saline with Tween-80): 92 % of control | T/C (dose: 200.0 mg/kg/injection, schedule: Q01DX009 (ip), vehicle: saline with Tween-80): 104 % of control

S=c1oc(-c2ccc3c(c2)OCO3)nn1CN1CCN(Cn2nc(-c3ccc4c(c3)OCO4)oc2=S)CC1
T/C [4]: 96 % of control | T/C [5]: 96 % of control | T/C [6]: 93 % of control

CCOC(=O)C1=CC(Oc2cc(NS(=O)(=O)c3ccccc3)ccc2O)C(C(=O)OCC)=CC1Oc1cc(NS(=O)(=O)c2ccccc2)ccc1O (stereo not drawn)
T/C (dose: 37.5 mg/kg/injection, schedule: Q01DX001 (ip), vehicle: saline with Tween-80): 105 % of control | T/C (dose: 75.0 mg/kg/injection, schedule: Q01DX001 (ip), vehicle: saline with Tween-80): 100 % of control | T/C (dose: 150.0 mg/kg/injection, schedule: Q01DX001 (ip), vehicle: saline with Tween-80): 100 % of control
